Measured values published in US20100285959A1, “HERBICIDAL MIXTURES” (priority 2006, published 2010).

Columns and labels:
[1] = tested on: kochia (KCHSC); assay: Test 21 growth chamber, postemergence; assay type: in vivo, Kochia scoparia; conditions: 19 DAA
Experimental: (§1) A test was conducted to evaluate the effects on winter barley (HORVW, Hordeum vulgare L.), winter wheat (TRZAW, Triticum aestivum L.), and several weed species, of mixtures of Compound 2 with the commercial herbicide (2,4-dichlorophenoxy)acetic acid (2,4-D), an auxin mimic. […] Plants were treated postemergence at the 2-4 leaf growth stage, and each treatment was replicated one time. […] Plants were watered as needed. […] Results are from single replicates.

[2] = tested on: winter wheat (TRZAW); assay: Test 19 growth chamber, postemergence; assay type: in vivo, Triticum aestivum
Experimental: A test was conducted to evaluate the effects on winter barley (HORVW, Hordeum vulgare L.) and winter wheat (TRZAW, Triticum aestivum L.) of mixtures of Compound 2 with the commercial herbicide (2,4-dichlorophenoxy)acetic acid (2,4-D), an auxin mimic. […] Plants were treated postemergence at the 3-leaf growth stage, and each treatment was replicated four times. […] Plants were watered as needed. […] Results are the means of the four replicates.

[3] = tested on: galium (GALAP); assay: Test 21 growth chamber, postemergence; assay type: in vivo, Galium aparine; conditions: 19 DAA
Experimental: as §1

[4] = tested on: kochia (KCHSC); assay: Test 22 growth chamber, postemergence; assay type: in vivo, Kochia scoparia; conditions: 25 DAA
Experimental: A test was conducted to evaluate the effects on winter barley (HORVW, Hordeum vulgare L.), winter wheat (TRZAW, Triticum aestivum L.), and several weed species of mixtures of Compound 2 with the commercial herbicides (2,4-dichlorophenoxy)acetic acid (2,4-D) and (4-chloro-2-methylphenoxy)acetic acid (MCPA), auxin mimics. […] Plants were treated postemergence at the 2-4 leaf growth stage, except KCHSC, SASKR and STEME which were in the 4-8 leaf growth stage. Each treatment was replicated one time. […] Plants were watered as needed. […] Results are from single replicates.

[5] = tested on: Italian cocklebur (XANSI); assay: Test 12 field trial, preemergence; assay type: in vivo, Xanthium strumarium ssp. italicum; parameters: scale not given here; conditions: Cpd 2 or Cpd 1 62 g a.i./ha, Diuron 2000 g a.i./ha
Source text: (§2) In early-mid spring season, corn seeds (hybrid ‘Pioneer 3041’) were planted 5 cm deep and sugarcane nodes (variety RB-72.454) were planted 10 cm deep in separate plots in a clay soil having 2.6% organic matter and a pH of 5.6. Plots were 24 m long by 1.5 m wide with rows spaced 80 cm (corn) or 140 cm (sugarcane) apart. Corn seeds were spaced 15 cm apart and sugarcane nodes were spaced 10 cm apart within the rows. At the same time, weed seeds were broadcast over the surface of separate plots without a crop, one weed species per plot. The weed plots were rotary tilled to incorporate the weed seeds to a variety of depths. The field was managed using conventional tillage practices.

[6] = tested on: common sugarcane (SACOF); assay: Test 12 field trial, preemergence; assay type: in vivo, Saccharum officinarum; parameters: scale not given here; conditions: Cpd 2 or Cpd 1 62 g a.i./ha, Diuron 2000 g a.i./ha
Source text: as §2

[7] = tested on: ivyleaf morningglory (IPOHE); assay: Test 14 field trial, preemergence, growth as percent of control; assay type: in vivo, Ipomoea hederacea; conditions: 28 DAA
Source text: (§3) Corn seeds (hybrid ‘Pioneer 31G96 RR’) were planted in mid spring season, 3.8 cm deep in a clay loam soil having 2% organic matter and a pH of 6.6. Plots were 6.1 m long by 3.0 m wide with rows spaced 76 cm apart. Seeds were spaced 15 cm apart within the rows. The field was managed using conventional tillage practices. […] Yellow nutsedge was only evaluated 19 and 28 days after application, and ivyleaf morningglory could only be evaluated 28 days after application. […] Results are the means of the three replicates. This growth inhibition data was converted to results in the form of “plant growth as a percent of control plant growth” using the calculation “100 minus growth inhibition”. […] For “growth as a percent of control” data, Colby's Equation calculates the expected additive effect of herbicidal mixtures having two active ingredients as follows:
(§4) Ga+b=GaGb/100 • wherein Ga+b is the growth as a percent of control of plants treated with the mixture expected from additive contribution of the individual components, • Ga is the observed growth as a percent of control of plants treated with the first active ingredient at the same use rate as in the mixture, and • Gb is the observed growth as a percent of control of plants treated with the second active ingredient at the same use rate as in the mixture. For mixtures having three active ingredients, Colby's Equation to calculate the expected additive effect of herbicidal mixtures is as follows:
(§5) Ga+b+c=GaGbGc/10,000 • wherein Ga and Gb are as defined above and • Ga+b+c is the growth as a percent of control of plants treated with the mixture expected from additive contribution of the individual components, and • Gc is the observed growth as a percent of control of plants treated with the third active ingredient at the same use rate as in the mixture. When these two forms of Colby's Equation are used, if the observed effects on weeds are less than the expected values, the mixture is synergistic.

[8] = tested on: velvetleaf (ABUTH); assay: as above; assay type: in vivo, Abutilon theophrasti
Source text: as §3, §4, §5

[9] = tested on: curly dock (RUMCR); assay: Test 3 field trial, emerged weeds before corn planting; assay type: in vivo, Rumex crispus; conditions: Cpd 2 100, glyphosate 1540, paraquat 1150 g a.i./ha, alone or combined
Source text: Corn seeds (hybrid ‘Pioneer 33J56’) were planted in early spring season, 3.8 cm deep in a silt loam soil having 2.4% organic matter and a pH of 6. Plots were 6.1 m long by 2.7 m wide with rows spaced 91.4 cm apart. The field was managed using no-till practices. […] Compound 2 and paraquat treatments, alone and in combination, also included a surfactant. Glyphosate, alone and with Compound 2, included ammonium sulfate in the treatment mixture. […] The effects on the weeds in the treated plots and untreated control plots were recorded 30, 42, 46 and 68 days after application. Most of the weed species could not be evaluated at every timing. Corn response was not evaluated because the growth was highly variable depending on the efficacy of the weed control treatments. […] Results are the means of the three replicates.

## O=C(O)COc1ccc(Cl)cc1Cl [2,4-D, (2,4-dichlorophenoxy)acetic acid]
[1]; 2,4-D alone 125 g a.i./ha
  Postemergence KCHSC Obs: 45
[1]; 2,4-D alone 250 g a.i./ha
  Postemergence KCHSC Obs: 45
[2]; Postemergence, 17 DAA, g a.i./ha: Cpd 2 16, 2,4-D 250
  TRZAW Obs: 23
[2]; Postemergence, 17 DAA, g a.i./ha: Cpd 2 16, 2,4-D 500
  TRZAW Obs: 23
[2]; Postemergence, 17 DAA, g a.i./ha: Cpd 2 16, 2,4-D 1000
  TRZAW Obs: 25
[3]; 2,4-D alone 125 g a.i./ha
  Postemergence GALAP Obs: 30
[3]; 2,4-D alone 250 g a.i./ha
  Postemergence GALAP Obs: 35
[4]; 2,4-D or MCPA alone 250 g a.i./ha
  Postemergence KCHSC Obs: 60

## Nc1nc(C2CC2)nc(C(=O)O)c1Cl [Compound 1, 6-amino-5-chloro-2-cyclopropyl-4-pyrimidinecarboxylic acid]
[5]; 15 DAA
  XANSI Obs: 40
[5]; 29 DAA
  XANSI Obs: 90
[5]; 48 DAA
  XANSI Obs: 90
[5]; 61 DAA
  XANSI Obs: 60
[6]; 15 DAA
  SACOF Obs: 0
[6]; 29 DAA
  SACOF Obs: 0
[6]; 48 DAA
  SACOF Obs: 0
[6]; 61 DAA
  SACOF Obs: 5

## COC(=O)c1nc(C2CC2)nc(N)c1Cl [Compound 2, methyl 6-amino-5-chloro-2-cyclopropyl-4-pyrimidinecarboxylate]
[1]; Cpd 2 alone 16 g a.i./ha
  Postemergence KCHSC Obs: 65
[5]; 15 DAA
  XANSI Obs: 0
[5]; 29 DAA
  XANSI Obs: 70
[5]; 48 DAA
  XANSI Obs: 60
[5]; 61 DAA
  XANSI Obs: 40
[2]; in vivo
  TRZAW Obs: 43
[3]; Cpd 2 alone 16 g a.i./ha
  Postemergence GALAP Obs: 90
[6]; 15 DAA
  SACOF Obs: 0
[6]; 29 DAA
  SACOF Obs: 0
[6]; 48 DAA
  SACOF Obs: 0
[6]; 61 DAA
  SACOF Obs: 5
[7]; 75 g a.i./ha
  Obs growth % of control: 0%
[7]; 100 g a.i./ha
  Obs growth % of control: 0%
[8]; 19 DAA, 75 g a.i./ha
  Obs growth % of control: 80%
[8]; 19 DAA, 100 g a.i./ha
  Obs growth % of control: 60%
[8]; 28 DAA, 75 g a.i./ha
  Obs growth % of control: 43%
[8]; 28 DAA, 100 g a.i./ha
  Obs growth % of control: 22%
[8]; 56 DAA, 75 g a.i./ha
  Obs growth % of control: 43%
[8]; 56 DAA, 100 g a.i./ha
  Obs growth % of control: 30%
[4]; Cpd 2 alone 4 g a.i./ha
  Postemergence KCHSC Obs: 45
[4]; Cpd 2 alone 8 g a.i./ha
  Postemergence KCHSC Obs: 50
[4]; Cpd 2 alone 16 g a.i./ha
  Postemergence KCHSC Obs: 60
[9]; 30 DAA
  RUMCR Obs: 62%
[9]; 42 DAA
  RUMCR Obs: 37%
[9]; 46 DAA
  RUMCR Obs: 54%
[9]; 68 DAA
  RUMCR Obs: 67%

## O=C(O)CNCP(=O)(O)O [Glyphosate]
[9]; 30 DAA
  RUMCR Obs: 75%
[9]; 42 DAA
  RUMCR Obs: 61%
[9]; 46 DAA
  RUMCR Obs: 82%
[9]; 68 DAA
  RUMCR Obs: 93%

## CCc1cccc(C)c1N(C(=O)CCl)[C@@H](C)COC [S-Metolachlor, S-metolachlor, reference compound]
[7]; 1870 g a.i./ha
  Obs growth % of control: 0%
[8]; 19 DAA, 1870 g a.i./ha
  Obs growth % of control: 68%
[8]; 28 DAA, 1870 g a.i./ha
  Obs growth % of control: 6%
[8]; 56 DAA, 1870 g a.i./ha
  Obs growth % of control: 87%
